Source: patent US20140315869A1, “THERAPEUTIC USES OF ECTOINE” (BITOP AG, priority 2011, published 2014)

Experiments:
neutrophils = assay: Neutrophil inflammation reactions in rats with carbon nanoparticles intratracheally administered; assay type: in vivo
Text: Neutrophil inflammation reactions were examined in rats with carbon nanoparticles intratracheally administered. This involved administration both with and without ectoine. […] In the first place, the liberation of cinc-1 is initially due to epithelial cells and macrophages, whereas later on the liberation caused by the great amount of ultimately existing neutrophils dominates.
It thus follows that ectoine cannot only be used on a preemptive basis but also for the treatment of an already existing inflammation.
Carbon nanoparticles (CNP, 14 nm, Printex 90, Degussa, Frankfurt, Germany) were suspended in a phosphate buffered salt solution (PBS) by means of ultra-sonic treatment. Similarly, a 0.1 and a 1 mM solution of ectoine was produced in PBS. 0.4 ml of the CNP particle suspension was administered intratracheally to Fisher 344 female rats. Treatment with 0.4 ml of the ectoine solutions, respectively PBS took place after one and two days. The rats were sacrificed on the third day, their lungs purged with 4×5 ml of PBS each. The cells of the individual animals were suspended in 1 ml of PBS and centrifuged. The pellets were washed with PBS once and resuspended in 300 μl of hypotonic solution (0.1% sodium citrate, 0.1% triton×100) containing 50 μg/ml of propidium iodide (PI). To determine the rate of apoptosis a fluorescence measurement was finally performed.

human neutrophils = assay: Apoptosis rate of isolated human neutrophil granulocytes (sub-G1 cells, propidium iodide, flow cytometry); assay type: cell-based; settings: for prevention of the reduction of the apoptosis rate caused by CNP with or without budenoside / background apoptosis rate: Experiment 7, 1 mM test substance, 16 h; for prevention of the reduction of the apoptosis rate caused by CNP with or without budenoside: young volunteers; for background apoptosis rate: neutrophils from young volunteers
Method: The effect of ectoine on the apoptosis was investigated by way of human neutrophils. Neutrophils from young, healthy donors (3 male and 2 female) were isolated and treated with the amounts of ectoine (mM) indicated. Treatment was carried out with ectoine alone (open columns) and with 33 μg/ml of CNP (black columns). Ectoine was not administered in the control group (C).
The apoptotic cells were quantified in the following manner: The neutrophils were suspended in 300 μl of hypotonic solution containing propidium iodide (PI). The fluorescence of PI was determined by means of flow cytometry (FACScan cytometer, BD Biosciences). The results are shown as percentage of hypodiploidal DNA (sub-G1), corresponding to fragmented DNA which is characteristic of apoptotic cells.
The effect of ectoine on the apoptosis was investigated by way of human neutrophils. Neutrophils of young, healthy donors (3 male and 2 female) were isolated and pretreated for 2 hours with PBS (dark columns) and with 1 mM of ectoine (light columns). Subsequently, treatment took place with 33 μg/ml of carbon nanoparticles (ufCB: ultrafine carbon black), 300 nM LTB4, 20 ng/ml GM CSF or 1 μM of dexamethasone, respectively no treatment with proinflammatory factors. (†: significant difference with respect to control group; *: significant difference with respect to neutrophils treated with proinflammatory factors and PBS only; quantification of the apoptotic cells analogous to Experiment 2).
The neutrophil granulocytes were pretreated for 2 hours with 1 mM of ectoine resp. PBS following which treatment took place for 16 hours with 33 μg/ml CNP, 300 nM LTB4, 20 ng/ml GMCSF or PBS. […] (dark columns: pretreatment with ectoine; light columns: pretreatment with PBS; *: significant difference with respect to control group without CNP or inflammation mediators; §: significant difference with respect to the treatment without ectoine; quantification of the apoptotic cells analogously to Experiment 2).
For Experiments 5 to 7 neutrophil granulocytes were obtained from blood samples. Groups 1 and 2 consisted of persons who participated in a current patient study. Male patients (aged 40 to 80 years) with stable COPD history (GOLD III/IV) and healthy control patients from an identical age group.
The influence of ectoine in combination with the corticosteroid budesonide on the apoptosis rates of neutrophils is illustrated in FIG. 5. Sub-G1-cells were measured after propidium iodide coloration (FACS-flow cytometry). Cells: primary, peripheral neutrophils. Isolation of the neutrophils by Percoll® centrifugation. Cultivation of 2×10^6 neutrophils in the presence of 33 μg/ml CNP, 300 nM LTB4, 20 ng/ml GM-CSF, 1 μM budesonide, 1 mM ectoine and combinations thereof for 16 h. FIG. 5 A: cells cumulated from all samples (n=15), FIG. 5 B: cells from COPD patients (n=5), FIG. 5 C: cells from healthy age control group (n=5), FIG. 5 D: cells from young volunteers (n=5).
Sub-G1-cells were measured after propidium iodide coloration (FACS-flow cytometry). Cells: primary, peripheral, human neutrophils. Isolation of the neutrophils by Percoll® centrifugation and cultivation of 2×10^6 neutrophils in the presence of 33 μg/ml CNP, 1 μM budesonide, 1 mM ectoine, 1 mM urea, 1 mM ectoine amide and combinations thereof for 16 h. The cells were obtained from young volunteers (group 3), n=5, bud=budenoside. Two additional test substances (urea and the ectoine amide of 2-hydroxy-5-aminobenzoic acid) were examined to check whether they were capable of inhibiting anti-apoptotic effects on neutrophils.

protein kinase B (Akt) = assay: Akt phosphorylation in human primary peripheral neutrophils (western blot); assay type: cell-based; settings: Experiment 6; 1 mM ectoine with 1 μM budesonide, also in the presence of 33 μg/ml CNP, 6 h
Method: (§1) The influence of ectoine in combination with budenoside on anti-apoptotic signals can be seen from FIG. 6. With selected samples of neutrophils relevant signals were detected via protein kinase B (Akt) and Mcl-1 by measurement of the Akt phosphorylation and the Mcl-1 protein level, with human primary peripheral neutrophils being used as cells. Isolation of the neutrophils by Percoll® centrifugation, the cultivation of 2×10^6 neutrophils in the presence of 33 μg/ml CNP, 1 μM budesonide, 1 mM ectoine and combinations thereof for 6 h. A protein isolation, western blot, luminescence on x-ray films was effected of material from each 3 COPD patients and 3 persons from the corresponding age control group.

Mcl-1 = Mcl-1 protein level in human primary peripheral neutrophils (western blot); assay type: cell-based; settings: Experiment 6; 1 mM ectoine with 1 μM budesonide, also in the presence of 33 μg/ml CNP, 6 h
Method: as §1

[1] = ectoine administered repeatedly after inflammation reaction triggered off several times

Row | SMILES | amount of neutrophils (neutrophils; [1]) | cinc-1 level (neutrophils; [1]) | liberation of cinc-1 (neutrophils; rats, carbon nanoparticles intratracheally with ectoine, after two days) | amount of neutrophils (neutrophils; rats, carbon nanoparticles intratracheally with ectoine, after two days, in comparison to the placebo group) | effect of ectoine given after commencement of the inflammatory reaction (neutrophils; two doses, one and two days after commencement of the inflammatory reaction) | reduction of the apoptosis rate caused by CNP (human neutrophils; Experiment 2, neutrophils from young healthy donors, 33 μg/ml CNP, significant amounts of ectoine) | apoptosis rate reduced by inflammatory stimulants (human neutrophils; Experiment 4, COPD and non-COPD patients, 2 h pretreatment 1 mM ectoine, then 16 h 33 μg/ml CNP, 300 nM LTB4 or 20 ng/ml GMCSF) | anti-apoptotic effect of proinflammatory substances combined with budesonide, with ectoine (human neutrophils; Experiment 5, CNP, LTB4, GM-CSF combined with 1 μM budesonide, 1 mM ectoine) | anti-apoptotic effect of budesonide, with ectoine (human neutrophils; Experiment 5, pretreatment 1 mM ectoine, 1 μM budesonide, no proinflammatory substances, all groups) | compensation of the reduction of the apoptosis rate due to pro-inflammatory factors (human neutrophils; isolated human neutrophil granulocytes, CNP, LTB4 or GM-CSF) | apoptosis rate, ectoine alone (human neutrophils; neutrophils without previous treatment with pro-inflammatory factors) | Akt phosphorylation, ectoine against budesonide effect (protein kinase B (Akt)) | Mcl-1 protein level, ectoine against budesonide effect (Mcl-1) | prevention of the reduction of the apoptosis rate caused by CNP with or without budenoside (human neutrophils; 33 μg/ml CNP, 1 μM budesonide) | background apoptosis rate (human neutrophils) | effectiveness compared with ectoine (human neutrophils; cf. FIG. 7)
1 | CC1=NCC[C@@H](C(=O)O)N1 [ectoine, (S)-2-methyl-1,4,5,6-tetrahydropyrimidine-4-carboxylic acid] | diminishing of the amount of neutrophils | lowering of the cinc-1 level | reduction of the liberation of cinc-1 | significant reduction of the amount of neutrophils | virtually had the same effect as an ectoine administration at the time the inflammatory reaction was triggered | could virtually be eliminated | resulted in the apoptosis rate to be restored significantly | the anti-apoptotic effect was successfully prevented | obviates the anti-apoptotic effect of the budesonide significantly | can be compensated depending on concentration at least partially | did not result in an increase of the apoptosis rate | capable of counteracting this effect | capable of counteracting this effect | – | – | –
2 | NC(N)=O [urea, reference compound] | – | – | – | – | – | – | – | – | – | – | – | – | – | this could not be achieved | did not have an influence on the background apoptosis rate | –
3 | CC1=NCCC(C(=O)Nc2ccc(O)c(C(=O)O)c2)N1 (stereo not drawn) [2-methyl-1,4,5,6-tetrahydropyrimidine-4-carboxylic acid amide of 2-hydroxy-5-aminobenzoic acid] | – | – | – | – | – | – | – | – | – | – | – | – | – | able to prevent the reduction of the apoptosis rate | did not have an influence on the background apoptosis rate | effectiveness comparable to ectoine itself
